{"source": "patent US8252524B2", "about": "“Method of screening pharmaceutical compositions that promote nuclear transfer of Cdc42 protein” (Kowa Company, Ltd., priority 2004, dated 2012)", "key": {"Cdc42 protein": {"test_system": "Cdc42 protein", "experiment": "Nuclear transfer of GFP/Cdc42 fusion protein in transformed HUVEC observed by fluorescence microscopy", "format": "cell-based", "settings": "HUVEC expressing GFP/Cdc42 fusion protein; 1 μM final concentration; 15 hours culture; nuclei confirmed by Hoechst staining", "procedure": "The present inventors measured the behavior of Cdc42 protein in HUVEC with an HMG-CoA reductase inhibitor, particularly pitavastatin. For this measurement, a gene encoding a Cdc42/fluorescence protein GFP fusion protein was introduced into HUVEC to prepare a transformed cell expressing a GFP/Cdc42 fusion protein. This transformed cell was cultured, and the state of Cdc42 distributed in the cell in the presence or absence of pitavastatin was examined by observing the fluorescence of GFP. A gene encoding the whole area of a Cdc42 translation region was introduced into a predetermined position of a commercial plasmid pEGFP-C1 for preparation of a fusion protein consisting of GFP and a desired protein, to construct a plasmid comprising the GFP-Cdc42 gene. After […] were put to a 6-well plate and then cultured overnight in EGM-2 medium. Using Fugene 6, the plasmid construct DNA prepared above was added in an amount of 0.8 μg/well to the cells. The cells were further cultured for 21 hours in EGM-2 medium, and then the fluorescence of GFP was observed under a fluorescence microscope. […] And then the cells were subjected to stationary culture for 15 hours, fixed onto a prepared slide and observed under a fluorescence microscope. […]"}, "[1]": {"test_system": "vascular endothelial cells", "settings": "cited from earlier work"}}, "data": [{"smiles": "O=C(O)C[C@H](O)C[C@H](O)/C=C/c1c(C2CC2)nc2ccccc2c1-c1ccc(F)cc1", "note": "[pitavastatin, (3R,5S,6E)-7-[2-cylopropyl-4-(4-fluorophenyl)-3-quinolyl]-3,5-dihydroxy-6-heptenoic acid]", "values": [{"measurement": "Distribution of GFP-Cdc42 in the cell (transfer into the nucleus)", "setting": "Cdc42 protein", "value": "GFP-Cdc42 is transferred to a nucleus"}, {"measurement": "Expression of NO synthase and thrombomodulin", "setting": "[1]", "value": "promotes expression of NO synthase"}, {"measurement": "Expression of PTX3", "setting": "[1]", "value": "suppresses expression of PTX3"}, {"measurement": "Expression of inflammatory cytokine IL-8 or MCP-1, endothelin and PAI-1", "setting": "[1]", "value": "suppresses expression of inflammatory cytokine IL-8 or MCP-1, expression of endothelin and expression of PAI-1"}]}]}
